Source: publication PMC9856672, “SGC-CAMKK2-1: A Chemical Probe for CAMKK2” (Cells, 2023)

Assays:
FGFR3(G697C) = biological target: T1, FGFR3(G697C) (Homo sapiens, UniProt P22607, G697C); test: KINOMEscan at 1 μM, FGFR3(G697C); type: binding; conditions: 1000 nM, read-out: Percent Control
T1 construct: purchased Eurofins DiscoverX KINOMEscan
Description: (§1) Supplement cells-12-00287-s001.zip/File S2. KinomeScan data for the CAMKK2 probe and negative control.xlsx, sheet "SGC-CAMKK2-1N" | column: Percent Control

MAP3K4 = biological target: T2, MAP3K4 (Homo sapiens, UniProt Q9Y6R4); test: KINOMEscan at 1 μM, MAP3K4; type: binding; conditions: 1000 nM, read-out: Percent Control
T2 construct: purchased Eurofins DiscoverX KINOMEscan
Description: as §1

PFPK5(P.falciparum) = biological target: T3, PFPK5(P.falciparum) (Plasmodium falciparum, UniProt P61075); test: KINOMEscan at 1 μM, PFPK5(P.falciparum); type: binding; conditions: 1000 nM, read-out: Percent Control
T3 construct: purchased Eurofins DiscoverX KINOMEscan
T3 sequence (P61075 whole entry): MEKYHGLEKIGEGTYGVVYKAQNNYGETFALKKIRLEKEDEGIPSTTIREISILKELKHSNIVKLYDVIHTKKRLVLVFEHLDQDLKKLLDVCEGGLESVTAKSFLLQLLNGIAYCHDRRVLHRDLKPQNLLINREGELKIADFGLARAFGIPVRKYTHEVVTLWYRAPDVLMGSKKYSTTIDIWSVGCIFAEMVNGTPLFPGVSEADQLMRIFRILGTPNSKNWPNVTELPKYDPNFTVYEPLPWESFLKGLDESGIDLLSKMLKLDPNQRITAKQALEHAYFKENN
Description: as §1

CDK4-cyclinD1 = biological target: T4, CDK4-cyclinD1 (Homo sapiens, UniProt P11802); test: KINOMEscan at 1 μM, CDK4-cyclinD1; type: binding; conditions: 1000 nM, read-out: Percent Control
T4 construct: purchased Eurofins DiscoverX KINOMEscan
T4 sequence (P11802 whole entry): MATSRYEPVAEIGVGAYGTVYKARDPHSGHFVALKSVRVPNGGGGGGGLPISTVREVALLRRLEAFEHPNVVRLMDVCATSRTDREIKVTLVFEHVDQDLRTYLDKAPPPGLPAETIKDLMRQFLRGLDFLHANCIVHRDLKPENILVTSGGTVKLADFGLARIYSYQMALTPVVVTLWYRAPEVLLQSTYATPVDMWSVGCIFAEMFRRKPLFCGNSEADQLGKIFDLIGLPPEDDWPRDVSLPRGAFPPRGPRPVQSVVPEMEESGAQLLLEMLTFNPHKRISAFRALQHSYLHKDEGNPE
T4 sequence (P24385 whole entry partner): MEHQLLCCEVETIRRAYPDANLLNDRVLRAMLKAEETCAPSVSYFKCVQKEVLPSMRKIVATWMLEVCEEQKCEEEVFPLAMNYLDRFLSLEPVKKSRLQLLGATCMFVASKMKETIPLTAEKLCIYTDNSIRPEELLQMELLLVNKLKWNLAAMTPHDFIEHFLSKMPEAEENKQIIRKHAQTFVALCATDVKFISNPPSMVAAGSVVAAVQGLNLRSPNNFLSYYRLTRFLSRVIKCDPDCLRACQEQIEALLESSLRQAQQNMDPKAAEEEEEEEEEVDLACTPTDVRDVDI
Description: as §1

PIK3CA(Q546K) = biological target: T5, PIK3CA(Q546K) (Homo sapiens, UniProt P42336, Q546K); test: KINOMEscan at 1 μM, PIK3CA(Q546K); type: binding; conditions: 1000 nM, read-out: Percent Control
T5 construct: purchased Eurofins DiscoverX KINOMEscan
T5 sequence (P42336 whole entry Q546K): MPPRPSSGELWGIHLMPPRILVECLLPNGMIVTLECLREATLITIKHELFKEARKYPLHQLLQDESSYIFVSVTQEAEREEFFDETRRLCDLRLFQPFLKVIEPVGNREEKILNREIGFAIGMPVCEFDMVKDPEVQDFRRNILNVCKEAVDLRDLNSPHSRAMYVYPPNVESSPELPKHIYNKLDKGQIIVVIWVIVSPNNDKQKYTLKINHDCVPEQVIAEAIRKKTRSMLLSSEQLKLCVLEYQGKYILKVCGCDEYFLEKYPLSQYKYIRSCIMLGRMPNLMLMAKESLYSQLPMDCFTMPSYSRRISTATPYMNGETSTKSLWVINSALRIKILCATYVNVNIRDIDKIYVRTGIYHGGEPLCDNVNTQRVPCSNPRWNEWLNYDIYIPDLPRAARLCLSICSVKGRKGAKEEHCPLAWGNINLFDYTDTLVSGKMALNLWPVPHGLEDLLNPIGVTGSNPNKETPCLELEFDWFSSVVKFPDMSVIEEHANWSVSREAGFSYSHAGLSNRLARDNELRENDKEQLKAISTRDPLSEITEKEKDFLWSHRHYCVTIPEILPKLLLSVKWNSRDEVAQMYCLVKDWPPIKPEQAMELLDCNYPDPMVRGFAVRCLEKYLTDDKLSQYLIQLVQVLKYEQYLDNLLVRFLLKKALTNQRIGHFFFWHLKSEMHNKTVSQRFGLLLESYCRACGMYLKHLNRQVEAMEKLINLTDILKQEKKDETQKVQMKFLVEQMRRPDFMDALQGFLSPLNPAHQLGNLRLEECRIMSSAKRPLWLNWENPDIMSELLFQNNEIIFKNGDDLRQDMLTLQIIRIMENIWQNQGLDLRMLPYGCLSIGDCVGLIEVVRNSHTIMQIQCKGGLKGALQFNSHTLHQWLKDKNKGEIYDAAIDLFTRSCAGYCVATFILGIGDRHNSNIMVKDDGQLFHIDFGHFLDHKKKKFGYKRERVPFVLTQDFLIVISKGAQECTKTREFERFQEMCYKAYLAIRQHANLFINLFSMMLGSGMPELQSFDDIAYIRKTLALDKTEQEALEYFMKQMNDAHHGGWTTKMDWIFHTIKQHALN
Description: as §1

CDKL2 = biological target: T6, CDKL2 (Homo sapiens, UniProt Q92772); test: KINOMEscan at 1 μM, CDKL2; type: binding; conditions: 1000 nM, read-out: Percent Control
T6 construct: purchased Eurofins DiscoverX KINOMEscan
Description: as §1

PIKFYVE = biological target: T7, PIKFYVE (Homo sapiens, UniProt Q9Y2I7); test: KINOMEscan at 1 μM, PIKFYVE; type: binding; conditions: 1000 nM, read-out: Percent Control
T7 construct: purchased Eurofins DiscoverX KINOMEscan
Description: as §1

YANK1 = biological target: T8, YANK1 (Homo sapiens, UniProt Q8WU08); test: KINOMEscan at 1 μM, YANK1; type: binding; conditions: 1000 nM, read-out: Percent Control
T8 construct: purchased Eurofins DiscoverX KINOMEscan
Description: as §1

TEC = biological target: T9, TEC (Homo sapiens, UniProt P42680); test: KINOMEscan at 1 μM, TEC; type: binding; conditions: 1000 nM, read-out: Percent Control
T9 construct: purchased Eurofins DiscoverX KINOMEscan
Description: as §1

AMPK-alpha1 = biological target: T10, AMPK-alpha1 (Homo sapiens, UniProt Q13131); test: KINOMEscan at 1 μM, AMPK-alpha1; type: binding; conditions: 1000 nM, read-out: Percent Control
T10 construct: purchased Eurofins DiscoverX KINOMEscan
Description: as §1

CDK5 = biological target: T11, CDK5 (Homo sapiens, UniProt Q00535); test: KINOMEscan at 1 μM, CDK5; type: binding; conditions: 1000 nM, read-out: Percent Control
T11 construct: purchased Eurofins DiscoverX KINOMEscan
Description: as §1

CHEK2 = biological target: T12, CHEK2 (Homo sapiens, UniProt O96017); test: KINOMEscan at 1 μM, CHEK2; type: binding; conditions: 1000 nM, read-out: Percent Control
T12 construct: purchased Eurofins DiscoverX KINOMEscan
Description: as §1

EGFR(S752-I759del) = biological target: T13, EGFR(S752-I759del) (Homo sapiens, UniProt P00533, DEL752-759); test: KINOMEscan binding assay at 1 μM, EGFR(S752-I759del); conditions: Compound Concentration 1000 nM; read-out: Percent Control
T13 construct: purchased Eurofins DiscoverX KINOMEscan
Description: as §1

EPHA6 = biological target: T14, EPHA6 (Homo sapiens, UniProt Q9UF33); test: KINOMEscan binding assay at 1 μM, EPHA6; conditions: Compound Concentration 1000 nM; read-out: Percent Control
T14 construct: purchased Eurofins DiscoverX KINOMEscan
T14 sequence (Q9UF33 23-1036): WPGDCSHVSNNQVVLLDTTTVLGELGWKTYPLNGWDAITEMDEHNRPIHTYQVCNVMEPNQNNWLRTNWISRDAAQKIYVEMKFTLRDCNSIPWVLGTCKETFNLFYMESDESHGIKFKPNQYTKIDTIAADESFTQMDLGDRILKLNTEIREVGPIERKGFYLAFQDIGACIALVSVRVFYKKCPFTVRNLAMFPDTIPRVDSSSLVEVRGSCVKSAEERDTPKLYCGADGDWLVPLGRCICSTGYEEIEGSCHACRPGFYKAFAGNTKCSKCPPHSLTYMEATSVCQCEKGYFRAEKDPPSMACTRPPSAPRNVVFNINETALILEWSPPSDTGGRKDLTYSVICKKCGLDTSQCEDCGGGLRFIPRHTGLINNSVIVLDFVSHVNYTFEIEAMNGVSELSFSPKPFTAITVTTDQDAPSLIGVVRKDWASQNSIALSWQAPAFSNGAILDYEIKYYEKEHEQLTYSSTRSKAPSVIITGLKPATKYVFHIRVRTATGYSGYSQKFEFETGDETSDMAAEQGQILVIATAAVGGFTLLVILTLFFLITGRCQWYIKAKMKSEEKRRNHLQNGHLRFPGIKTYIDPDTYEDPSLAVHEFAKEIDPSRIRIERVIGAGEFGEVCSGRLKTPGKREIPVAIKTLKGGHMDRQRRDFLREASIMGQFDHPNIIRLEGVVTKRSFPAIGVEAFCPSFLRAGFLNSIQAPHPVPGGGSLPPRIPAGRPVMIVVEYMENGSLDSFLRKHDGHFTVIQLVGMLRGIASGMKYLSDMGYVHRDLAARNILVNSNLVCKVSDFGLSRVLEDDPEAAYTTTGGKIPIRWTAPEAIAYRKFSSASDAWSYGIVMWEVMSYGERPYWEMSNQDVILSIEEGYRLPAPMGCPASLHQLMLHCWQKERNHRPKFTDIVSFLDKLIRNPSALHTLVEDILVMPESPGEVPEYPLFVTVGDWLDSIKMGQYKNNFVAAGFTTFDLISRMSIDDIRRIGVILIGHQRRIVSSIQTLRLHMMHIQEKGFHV
Description: as §1

FLT3(K663Q) = biological target: T15, FLT3(K663Q) (Homo sapiens, UniProt P36888, K663Q); test: KINOMEscan binding assay at 1 μM, FLT3(K663Q); conditions: Compound Concentration 1000 nM; read-out: Percent Control
T15 construct: purchased Eurofins DiscoverX KINOMEscan
Description: as §1

FLT3(N841I) = biological target: T16, FLT3(N841I) (Homo sapiens, UniProt P36888, N841I); test: KINOMEscan binding assay at 1 μM, FLT3(N841I); conditions: Compound Concentration 1000 nM; read-out: Percent Control
T16 construct: purchased Eurofins DiscoverX KINOMEscan
Description: as §1

[1] = biological target: T17, RSK4(Kin.Dom.2-C-terminal) (Homo sapiens, UniProt Q9UK32); test: KINOMEscan binding assay at 1 μM, RSK4(Kin.Dom.2-C-terminal); conditions: Compound Concentration 1000 nM; read-out: Percent Control
T17 construct: RSK4(Kin.Dom.2-C-terminal); purchased Eurofins DiscoverX KINOMEscan
Description: as §1

SNRK = biological target: T18, SNRK (Homo sapiens, UniProt Q9NRH2); test: KINOMEscan binding assay at 1 μM, SNRK; conditions: Compound Concentration 1000 nM; read-out: Percent Control
T18 construct: purchased Eurofins DiscoverX KINOMEscan
Description: as §1

TGFBR2 = biological target: T19, TGFBR2 (Homo sapiens, UniProt P37173); test: KINOMEscan binding assay at 1 μM, TGFBR2; conditions: Compound Concentration 1000 nM; read-out: Percent Control
T19 construct: purchased Eurofins DiscoverX KINOMEscan
Description: as §1

ULK1 = biological target: T20, ULK1 (Homo sapiens, UniProt O75385); test: KINOMEscan 1 μM, ULK1; type: binding; conditions: 1000 nM; Entrez ULK1; read-out: Percent Control
T20 construct: purchased Eurofins DiscoverX KINOMEscan
Description: (§2) Supplement cells-12-00287-s001.zip/File S2. KinomeScan data for the CAMKK2 probe and negative control.xlsx, sheet "SGC-CAMKK2-1" | column: Percent Control

SRPK1 = biological target: T21, SRPK1 (Homo sapiens, UniProt Q96SB4); test: KINOMEscan 1 μM, SRPK1; type: binding; conditions: 1000 nM; Entrez SRPK1; read-out: Percent Control
T21 construct: purchased Eurofins DiscoverX KINOMEscan
Description: as §2

ERK2 = biological target: T22, ERK2 (Homo sapiens, UniProt P28482); test: KINOMEscan 1 μM, ERK2; type: binding; conditions: 1000 nM; Entrez MAPK1; read-out: Percent Control
T22 construct: purchased Eurofins DiscoverX KINOMEscan
T22 sequence (P28482 whole entry): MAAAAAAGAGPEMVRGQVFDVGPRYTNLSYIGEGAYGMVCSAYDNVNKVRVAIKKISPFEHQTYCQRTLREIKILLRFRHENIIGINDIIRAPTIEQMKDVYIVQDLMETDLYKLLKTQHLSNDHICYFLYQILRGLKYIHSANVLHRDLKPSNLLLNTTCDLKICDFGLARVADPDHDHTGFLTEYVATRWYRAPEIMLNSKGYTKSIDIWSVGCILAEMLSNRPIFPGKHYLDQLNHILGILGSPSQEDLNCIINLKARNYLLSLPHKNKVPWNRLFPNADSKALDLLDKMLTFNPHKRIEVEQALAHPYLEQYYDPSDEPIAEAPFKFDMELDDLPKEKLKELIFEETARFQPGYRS
Description: as §2

SYK = biological target: T23, SYK (Homo sapiens, UniProt P43405); test: KINOMEscan 1 μM, SYK; type: binding; conditions: 1000 nM; Entrez SYK; read-out: Percent Control
T23 construct: purchased Eurofins DiscoverX KINOMEscan
Description: as §2

PIK3C2B = biological target: T24, PIK3C2B (Homo sapiens, UniProt O00750); test: KINOMEscan 1 μM, PIK3C2B; type: binding; conditions: 1000 nM; Entrez PIK3C2B; read-out: Percent Control
T24 construct: purchased Eurofins DiscoverX KINOMEscan
Description: as §2

CAMK4 = biological target: T25, CAMK4 (Homo sapiens, UniProt Q16566); test: KINOMEscan 1 μM, CAMK4; type: binding; conditions: 1000 nM; Entrez CAMK4; read-out: Percent Control
T25 construct: purchased Eurofins DiscoverX KINOMEscan
T25 sequence (Q16566 whole entry): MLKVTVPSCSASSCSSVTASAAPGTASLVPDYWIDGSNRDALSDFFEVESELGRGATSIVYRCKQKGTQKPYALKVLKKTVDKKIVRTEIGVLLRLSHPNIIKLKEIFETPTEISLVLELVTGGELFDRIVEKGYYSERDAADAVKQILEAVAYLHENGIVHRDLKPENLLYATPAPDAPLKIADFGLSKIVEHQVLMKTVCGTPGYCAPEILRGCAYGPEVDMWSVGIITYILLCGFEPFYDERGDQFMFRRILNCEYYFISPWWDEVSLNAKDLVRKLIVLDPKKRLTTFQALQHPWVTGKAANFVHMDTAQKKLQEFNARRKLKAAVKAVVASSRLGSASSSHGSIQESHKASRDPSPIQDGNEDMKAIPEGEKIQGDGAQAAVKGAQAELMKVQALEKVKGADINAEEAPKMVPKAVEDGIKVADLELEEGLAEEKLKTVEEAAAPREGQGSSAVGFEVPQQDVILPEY
Description: as §2

CDK2 = biological target: T26, CDK2 (Homo sapiens, UniProt P24941); test: KINOMEscan 1 μM, CDK2; type: binding; conditions: 1000 nM; Entrez CDK2; read-out: Percent Control
T26 construct: purchased Eurofins DiscoverX KINOMEscan
Description: as §2

CSNK1D = biological target: T27, CSNK1D (Homo sapiens, UniProt P48730); test: KINOMEscan 1 μM, CSNK1D; type: binding; conditions: 1000 nM; Entrez CSNK1D; read-out: Percent Control
T27 construct: purchased Eurofins DiscoverX KINOMEscan
T27 sequence (P48730 whole entry): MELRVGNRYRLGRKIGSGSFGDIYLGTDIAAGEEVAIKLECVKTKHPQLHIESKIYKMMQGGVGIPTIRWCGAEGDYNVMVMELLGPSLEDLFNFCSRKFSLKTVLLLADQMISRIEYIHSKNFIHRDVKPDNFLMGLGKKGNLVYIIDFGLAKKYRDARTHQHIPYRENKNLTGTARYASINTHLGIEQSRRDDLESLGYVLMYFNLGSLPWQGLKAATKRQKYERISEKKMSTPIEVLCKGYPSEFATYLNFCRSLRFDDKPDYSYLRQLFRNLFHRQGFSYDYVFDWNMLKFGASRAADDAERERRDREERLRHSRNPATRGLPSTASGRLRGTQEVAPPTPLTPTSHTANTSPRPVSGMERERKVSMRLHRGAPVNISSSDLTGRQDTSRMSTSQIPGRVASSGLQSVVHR
Description: as §2

HIPK2 = biological target: T28, HIPK2 (Homo sapiens, UniProt Q9H2X6); test: KINOMEscan 1 μM, HIPK2; type: binding; conditions: 1000 nM; Entrez HIPK2; read-out: Percent Control
T28 construct: purchased Eurofins DiscoverX KINOMEscan
Description: as §2

KIT(D816V) = biological target: T29, KIT(D816V) (Homo sapiens, UniProt P10721, D816V); test: KINOMEscan 1 μM, KIT(D816V); type: binding; conditions: 1000 nM; Entrez KIT; read-out: Percent Control
T29 construct: purchased Eurofins DiscoverX KINOMEscan
Description: as §2

MAP4K5 = biological target: T30, MAP4K5 (Homo sapiens, UniProt Q9Y4K4); test: KINOMEscan 1 μM, MAP4K5; type: binding; conditions: 1000 nM; Entrez MAP4K5; read-out: Percent Control
T30 construct: purchased Eurofins DiscoverX KINOMEscan
Description: as §2

MRCKA = biological target: T31, MRCKA (Homo sapiens, UniProt Q5VT25); test: KINOMEscan 1 μM, MRCKA; type: binding; conditions: 1000 nM; Entrez CDC42BPA; read-out: Percent Control
T31 construct: purchased Eurofins DiscoverX KINOMEscan
Description: as §2

PAK7 = biological target: T32, PAK7 (Homo sapiens, UniProt Q9P286); test: DiscoverX KINOMEscan binding assay at 1 μM, PAK7; conditions: Compound Concentration 1000 nM, read-out: Percent Control
T32 construct: purchased Eurofins DiscoverX KINOMEscan
Description: as §2

PYK2 = biological target: T33, PYK2 (Homo sapiens, UniProt Q14289); test: DiscoverX KINOMEscan binding assay at 1 μM, PYK2; conditions: PYK2 (PTK2B); Compound Concentration 1000 nM; read-out: Percent Control
T33 construct: purchased Eurofins DiscoverX KINOMEscan
Description: as §2

T1 sequence (P22607 23-806 G697C): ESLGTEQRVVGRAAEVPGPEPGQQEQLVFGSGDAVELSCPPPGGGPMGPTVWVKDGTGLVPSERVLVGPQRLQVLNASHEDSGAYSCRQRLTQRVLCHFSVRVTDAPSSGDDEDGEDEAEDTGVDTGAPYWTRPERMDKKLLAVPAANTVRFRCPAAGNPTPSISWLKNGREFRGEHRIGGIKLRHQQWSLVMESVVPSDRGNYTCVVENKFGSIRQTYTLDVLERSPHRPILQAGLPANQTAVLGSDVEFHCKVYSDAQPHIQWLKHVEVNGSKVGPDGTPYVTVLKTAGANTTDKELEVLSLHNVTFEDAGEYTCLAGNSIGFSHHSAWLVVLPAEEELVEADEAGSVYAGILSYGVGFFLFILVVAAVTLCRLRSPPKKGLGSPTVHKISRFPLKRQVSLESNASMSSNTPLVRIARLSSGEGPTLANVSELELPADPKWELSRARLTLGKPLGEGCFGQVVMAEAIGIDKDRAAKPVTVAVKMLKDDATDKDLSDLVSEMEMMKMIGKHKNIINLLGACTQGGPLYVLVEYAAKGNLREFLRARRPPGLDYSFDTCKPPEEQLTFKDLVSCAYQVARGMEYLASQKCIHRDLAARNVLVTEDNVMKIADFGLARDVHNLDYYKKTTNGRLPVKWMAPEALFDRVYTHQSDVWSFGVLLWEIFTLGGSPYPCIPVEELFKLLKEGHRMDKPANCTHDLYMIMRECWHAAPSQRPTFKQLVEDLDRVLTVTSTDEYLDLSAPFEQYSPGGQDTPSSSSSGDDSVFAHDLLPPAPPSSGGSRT

O=C(O)c1ccc(-c2coc3ncc(-c4ccccc4)cc23)cc1Cl [SGC-CAMKK2-1N (UNC-YL-83)]
remaining binding at 1 µM (FGFR3(G697C)): 65%
remaining binding at 1 µM (MAP3K4): 68%
remaining binding at 1 µM (PFPK5(P.falciparum)): 69%
remaining binding at 1 µM (CDK4-cyclinD1): 70%
remaining binding at 1 µM (PIK3CA(Q546K)): 73%
remaining binding at 1 µM (CDKL2): 74%
remaining binding at 1 µM (PIKFYVE): 84%
remaining binding at 1 µM (YANK1): 84%
remaining binding at 1 µM (TEC): 96%
remaining binding at 1 µM (AMPK-alpha1): 100%
remaining binding at 1 µM (CDK5): 100%
remaining binding at 1 µM (CHEK2): 100%
remaining binding at 1 µM (EGFR(S752-I759del)): 100%
remaining binding at 1 µM (EPHA6): 100%
remaining binding at 1 µM (FLT3(K663Q)): 100%
remaining binding at 1 µM (FLT3(N841I)): 100%
remaining binding at 1 µM [1]: 100%
remaining binding at 1 µM (SNRK): 100%
remaining binding at 1 µM (TGFBR2): 100%

Cc1cccc(-c2cnc3occ(-c4ccc(C(=O)O)c(C5CCCC5)c4)c3c2)c1 [SGC-CAMKK2-1 (YL-36)]
remaining binding at 1 µM (ULK1): 62%
remaining binding at 1 µM (SRPK1): 80%
remaining binding at 1 µM (ERK2): 81%
remaining binding at 1 µM (SYK): 85%
remaining binding at 1 µM (PIK3C2B): 87%
remaining binding at 1 µM (CAMK4): 100%
remaining binding at 1 µM (CDK2): 100%
remaining binding at 1 µM (CSNK1D): 100%
remaining binding at 1 µM (HIPK2): 100%
remaining binding at 1 µM (KIT(D816V)): 100%
remaining binding at 1 µM (MAP4K5): 100%
remaining binding at 1 µM (MRCKA): 100%
remaining binding at 1 µM (PAK7): 100%
remaining binding at 1 µM (PYK2): 100%
